Source: patent publication US12599141B2, “Rod-shaped plant viral nanoparticles or virus-like particles for agricultural applications” (priority 2016, dated 2026)
pEC50: −log10 of the molar value.

Assays:
C. elegans = C. elegans motility assay in liquid culture; format: in vivo, Caenorhabditis elegans
Description: OP50-1 E. coli and C. elegans strain N2 were provided by the Caenorhabditis Genetics Center (CGC) from the University of Minnesota, which is funded by NIH office of Research Infrastructure Programs P40 OD010440. Nematodes were cultured using 100 mm×15 mm sterile polystyrene Petri dishes (FB0875712, Fisher). […] Nematodes were then cultured on the OP50-1 E. coli plates at 22° C. […] OP50-1 E. coli pellet stocks were resuspended in S basal and added to the liquid culture to provide a food source to the nematodes.
Bioavailability of CVTMGMV and free CV to C. elegans was investigated in liquid culture (see above). 50 Nematodes were added to each well of a 24-well culture plate to a final volume of 1 mL. […] The percent of affected nematodes (sum of the nematodes on scale (2) and (3)) as a function of time and the effective concentration (EC50) were determined comparing free CV, TMGMV, and CVTMGMV.
Bioavailability of CVTMGMV and free CV in Caenorhabditis elegans (C. elegans) was investigated in liquid culture. C. elegans nematode motility was classified as either (1) totally immobilized, (2) impaired motility, or (3) […] nematodes. To illustrate the data that were collected, a series of snap shots of C. elegans incubated with no treatment, 10 μM of CV, and 10 μM of CVTMGMV were taken every second for 60 s. […] Five nematodes were selected in each treatment regime and pseudocolored to illustrate their motility.
At specific time points, nematodes were observed under a white light microscope, and the percent of affected nematodes (sum of the nematodes on scale (2) and (3)) was quantified as a function of time. The effective concentration (EC50), defined as the concentration of CV at which half of the maximum immobilization of C. elegans was reached, was determined for free CV and CVTMGMV (FIGS. 5D-G).

[1] = Soil mobility (leaching through 4 cm top soil column); format: physicochemical
Description: The following soil mobility test was designed to establish the leaching of CVTMGMV and free CV in a soil column. […] One mL aliquots of CVTMGMV or free CV (the concentration was 100 mM normalized to the drug concentration) were applied atop of the soil columns, followed by 50 elution fractions of 300 μL DI water. Each collected elution fraction was centrifuged for 10 min at 12,000 rpm to precipitate remaining soil particles. The supernatant was subsequently analyzed by UV-vis spectroscopy (see above).
A soil mobility test was designed to establish the leaching of CVTMGMV and free CV in soil. Briefly, top soil was packed in a plastic column up to a height of 4 cm and saturated with deionized (DI) water. CVTMGMV or free CV was applied atop the soil columns, followed by DI water. Fractions were collected from the soil column, purified, and analyzed by UV-vis spectroscopy for the presence of TMGMV and CV. The λ260 (RNA) and λ280 (CP) wavelengths were monitored to quantify the amount of TMGMV that leached through the soil.

[2] = CV release profile from CVTMGMV, dialysis-based assay; format: physicochemical; conditions: 10 mM KP buffer
Description: The release of CV from TMGMV was evaluated using a dialysis-based assay.
Next, we evaluated the release profile of CV from the TMGMV nanocarrier. […] We tested the release profile at room temperature and 4° C. to evaluate two extreme upper soil thermal conditions. Sodium acetate (pH 5.2) and PBS (pH 7.4) buffer solutions were chosen to mimic the acidic and neutral soil environments, respectively. Diffusion of CV from CVTMGMV was also evaluated in KP (pH 7.8) buffer, which was used during loading and storing conditions of the sample. Free CV, in a concentration matched to the concentration and number loaded into TMGMV, was also dialyzed in KP buffer (pH 7.8) at 4° C. as a positive control.

[3] = ref: PubChem CID 11057; cited from earlier work

SMILES: CN(C)c1ccc(C(=C2C=CC(=[N+](C)C)C=C2)c2ccc(N(C)C)cc2)cc1 [CV, hexamethyl parparosaniline chloride]
- incubation time to maximum efficacy (C. elegans; 1 μM): 6 h
- nematodes paralyzed/dead (C. elegans; 1 μM, within the first hour): about 15%
- incubation time to maximum efficacy (C. elegans; 10 μM): 6 h
- motility by time lapse imaging (C. elegans; 10 μM, after 3 h of incubation): severe motility impairment
- nematodes paralyzed/dead (C. elegans; 10 μM, within the first hour): about 30%
- nematodes paralyzed/dead (C. elegans; 100 μM, within 1 h, 22° C.): Sixty
- Emax at 1 µM (C. elegans; Caenorhabditis elegans, 6 h, read-out: maximum efficacy (nematodes affected)): ~25%
- pEC50 (C. elegans; Caenorhabditis elegans, 24 h, read-out: EC50 (concentration of CV at half of maximum immobilization of C. elegans)): 5.43
- Emax at 10 µM (C. elegans; Caenorhabditis elegans, read-out: maximum efficacy (nematodes affected)): ~50%
- effect on nematode motility vs untreated population (C. elegans; doses lower than 1 μM): no significant effect on nematode motility
- eluted concentration of CV, times lower than CVTMGMV [1]: 3.6 times
- time to 50% of CV released/dialyzed ([2]; pH 7.8, 4° C. (storing conditions)): ≤ 1.6 h
- time to complete release of CV ([2]; pH 7.8, 4° C., dialysis over 72 h): < 18 h
- Koc [3]: 6.1×10^5
